Peptide text beside a SMILES is read from it. * marks the point of attachment. Cbz = O=C(OCc1ccccc1)*
Biological target: rSmeCalp1 (recombinant Schistosoma mekongi calpain 1) (Schistosoma mekongi, UniProt A0A5B8WCQ5)
Test: fluorogenic protease assay (AMC release)
Format: biochemical

Sequence of rSmeCalp1 (recombinant Schistosoma mekongi calpain 1) (A0A5B8WCQ5 entry or part of it): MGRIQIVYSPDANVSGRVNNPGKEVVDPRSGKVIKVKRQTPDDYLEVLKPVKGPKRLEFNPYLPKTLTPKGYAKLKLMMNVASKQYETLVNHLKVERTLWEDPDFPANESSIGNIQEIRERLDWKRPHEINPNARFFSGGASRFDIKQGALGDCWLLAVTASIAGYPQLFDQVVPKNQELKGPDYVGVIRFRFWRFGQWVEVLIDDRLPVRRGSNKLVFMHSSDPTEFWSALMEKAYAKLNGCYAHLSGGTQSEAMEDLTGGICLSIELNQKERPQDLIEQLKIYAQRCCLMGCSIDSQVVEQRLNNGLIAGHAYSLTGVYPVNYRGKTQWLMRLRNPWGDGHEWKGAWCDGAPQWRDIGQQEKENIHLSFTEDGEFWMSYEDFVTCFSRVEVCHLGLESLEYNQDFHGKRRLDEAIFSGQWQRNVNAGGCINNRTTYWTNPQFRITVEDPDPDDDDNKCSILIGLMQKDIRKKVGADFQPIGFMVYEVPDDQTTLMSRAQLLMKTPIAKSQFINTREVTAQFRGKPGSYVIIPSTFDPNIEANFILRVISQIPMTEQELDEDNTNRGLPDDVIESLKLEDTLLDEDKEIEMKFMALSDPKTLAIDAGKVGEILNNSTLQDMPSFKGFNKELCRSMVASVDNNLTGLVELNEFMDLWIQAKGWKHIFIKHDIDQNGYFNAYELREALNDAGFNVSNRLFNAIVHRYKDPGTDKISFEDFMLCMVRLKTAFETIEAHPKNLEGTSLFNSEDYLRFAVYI

Row | inhibition at 100 µM [%] | SMILES
1 | 87 | CC(C)CCNC(=O)[C@H](CC(C)C)NC(=O)[C@H]1O[C@@H]1C(=O)O [E64c]
2 | 94 | CC(C)[C@H](NC(=O)OCc1ccccc1)C(=O)N[C@H](C=O)Cc1ccccc1 [MDL28170] (Cbz-Val-Phe-aldehyde)

Row | SMILES | inhibition at 100 µM [%]
3 | CC(C)C[C@H](NC(=O)[C@@H]1O[C@H]1C(=O)O)C(=O)NCCCCN=C(N)N [E64] | 98

Reference: PMC6668146, “Molecular characterization and functional analysis of the Schistosoma mekongi Ca^2+-dependent cysteine protease (calpain)” (Parasites & Vectors, 2019)
